According to patent publication US8741944B2, “Anti-infective agents against intracellular pathogens” (priority 2007, dated 2014):
Read-outs that look alike come from different tables or passages of the source.

Key:
[1] = system: NCI-H522 (Non-Small Cell Lung Cancer)
Experimental: (§1) For a typical screening experiment, cells are inoculated into 96 well microtiter plates in 100 μL at plating densities ranging from 5,000 to 40,000 cells/well depending on the doubling time of individual cell lines. After cell inoculation, the microtiter plates are incubated at 37° C., 5% CO2, 95% air and 100% relative humidity for 24 h prior to addition of experimental drugs.
(§2) After 24 h, two plates of each cell line are fixed in situ with TCA, to represent a measurement of the cell population for each cell line at the time of drug addition (Tz). Experimental drugs are solubilized in dimethyl sulfoxide at 400-fold the desired final maximum test concentration and stored frozen prior to use. At the time of drug addition, an aliquot of frozen concentrate is thawed and diluted to twice the desired final maximum test concentration with complete medium containing 50 μg/ml gentamicin. Additional four, 10-fold or ½ log serial dilutions are made to provide a total of five drug concentrations plus control. Aliquots of 100 μl of these different drug dilutions are added to the appropriate microtiter wells already containing 100 μl of medium, resulting in the required final drug concentrations.
(§3) Following drug addition, the plates are incubated for an additional 48 h at 37° C., 5% CO2, 95% air, and 100% relative humidity. For adherent cells, the assay is terminated by the addition of cold TCA. Cells are fixed in situ by the gentle addition of 50 μl of cold 50% (w/v) TCA (final concentration, 10% TCA) and incubated for 60 minutes at 4° C. The supernatant is discarded, and the plates are washed five times with tap water and air dried. Sulforhodamine B (SRB) solution (1001) at 0.4% (w/v) in 1% acetic acid is added to each well, and plates are incubated for 10 minutes at room temperature. After staining, unbound dye is removed by washing five times with 1% acetic acid and the plates are air dried. Bound stain is subsequently solubilized with 10 mM trizma base, and the absorbance is read on an automated plate reader at a wavelength of 515 nm. For suspension cells, the methodology is the same except that the assay is terminated by fixing settled cells at the bottom of the wells by gently adding 50 μl of 80% TCA (final concentration, 16% TCA). Using the seven absorbance measurements [time zero, (Tz), control growth, (C), and test growth in the presence of drug at the five concentration levels (Ti)], the percentage growth is calculated at each of the drug concentrations levels. Percentage growth inhibition is calculated as: [(Ti−Tz)/(C−Tz)]×100 for concentrations for which Ti>/=Tz [(Ti−Tz)/Tz]×100 for concentrations for which Ti<Tz
(§4) Three dose response parameters are calculated for each experimental agent. […] The drug concentration resulting in total growth inhibition (TGI) is calculated from Ti=Tz. […] Values are calculated for each of these three parameters if the level of activity is reached; however, if the effect is not reached or is exceeded, the value for that parameter is expressed as greater or less than the maximum or minimum concentration tested.

KM12 (Colon Cancer) = assay: NCI DTP tumor cell line screen (SRB), KM12
Experimental: as §1, §2, §3, §4

COLO 205 (Colon Cancer) = assay: NCI DTP tumor cell line screen (SRB), COLO 205
Experimental: as §1, §2, §3, §4

SK-MEL-5 (Melanoma) = assay: NCI DTP tumor cell line screen (SRB), SK-MEL-5
Experimental: as §1, §2, §3, §4

MOLT-4 (Leukemia) = assay: NCI DTP tumor cell line screen (SRB), MOLT-4
Experimental: as §1, §2, §3, §4

[2] = system: MDA-MB-435 (Breast Cancer); assay: NCI DTP tumor cell line screen (SRB), MDA-MB-435
Experimental: as §1, §2, §3, §4

IGROV1 (Ovarian Cancer) = assay: NCI DTP tumor cell line screen (SRB), IGROV1
Experimental: as §1, §2, §3, §4

OVCAR-4 (Ovarian Cancer) = assay: NCI DTP tumor cell line screen (SRB), OVCAR-4
Experimental: as §1, §2, §3, §4

MALME-3M (Melanoma) = assay: NCI DTP tumor cell line screen (SRB), MALME-3M
Experimental: as §1, §2, §3, §4

NCC(=O)Nc1ccc(-n2nc(C(F)(F)F)cc2-c2ccc3c(ccc4ccccc43)c2)cc1 [Compound 70, 2-Amino-N-{4-[5-(2-phenanthrenyl)-3-(trifluoromethyl)-1H-pyrazol-1-yl]-phenyl}-acetamide]
Percent Growth ([1]; Log10 Concentration −7.0): 122% | Mean Optical Densities ([1]; Log10 Concentration −8.0): 1.626 | Percent Growth ([1]; Log10 Concentration −8.0): 110% | TGI (KM12 (Colon Cancer)): 2.67E−06 | Mean Optical Densities (KM12 (Colon Cancer); Log10 Concentration −4.0): 0.264 | Mean Optical Densities (KM12 (Colon Cancer); Log10 Concentration −5.0): 0.146 | Percent Growth (KM12 (Colon Cancer); Log10 Concentration −5.0): −73% | Mean Optical Densities (KM12 (Colon Cancer); Log10 Concentration −6.0): 1.425 | Percent Growth (KM12 (Colon Cancer); Log10 Concentration −6.0): 54% | Mean Optical Densities (KM12 (Colon Cancer); Log10 Concentration −7.0): 2.044 | Percent Growth (KM12 (Colon Cancer); Log10 Concentration −7.0): 91% | Mean Optical Densities (KM12 (Colon Cancer); Log10 Concentration −8.0): 2.151 | Percent Growth (KM12 (Colon Cancer); Log10 Concentration −8.0): 98% | Mean Optical Densities (COLO 205 (Colon Cancer); Log10 Concentration −4.0): 0.239 | Mean Optical Densities (COLO 205 (Colon Cancer); Log10 Concentration −5.0): 0.104 | Percent Growth (COLO 205 (Colon Cancer); Log10 Concentration −5.0): −53% | Mean Optical Densities (COLO 205 (Colon Cancer); Log10 Concentration −6.0): 0.916 | Percent Growth (COLO 205 (Colon Cancer); Log10 Concentration −6.0): 58% | Mean Optical Densities (COLO 205 (Colon Cancer); Log10 Concentration −7.0): 1.252 | Percent Growth (COLO 205 (Colon Cancer); Log10 Concentration −7.0): 87% | Mean Optical Densities (COLO 205 (Colon Cancer); Log10 Concentration −8.0): 1.286 | Percent Growth (COLO 205 (Colon Cancer); Log10 Concentration −8.0): 89% | TGI (SK-MEL-5 (Melanoma)): 3.02E−06 | Mean Optical Densities (SK-MEL-5 (Melanoma); Log10 Concentration −4.0): 0.364 | Mean Optical Densities (SK-MEL-5 (Melanoma); Log10 Concentration −5.0): 0.136 | Percent Growth (SK-MEL-5 (Melanoma); Log10 Concentration −5.0): −75% | Mean Optical Densities (SK-MEL-5 (Melanoma); Log10 Concentration −6.0): 1.659 | Percent Growth (SK-MEL-5 (Melanoma); Log10 Concentration −6.0): 69% | Mean Optical Densities (SK-MEL-5 (Melanoma); Log10 Concentration −7.0): 1.958 | Percent Growth (SK-MEL-5 (Melanoma); Log10 Concentration −7.0): 88% | Mean Optical Densities (SK-MEL-5 (Melanoma); Log10 Concentration −8.0): 1.995 | Percent Growth (SK-MEL-5 (Melanoma); Log10 Concentration −8.0): 91% | TGI (MOLT-4 (Leukemia)): 3.10E−06 | Mean Optical Densities (MOLT-4 (Leukemia); Log10 Concentration −4.0): 0.296 | Mean Optical Densities (MOLT-4 (Leukemia); Log10 Concentration −5.0): 0.180 | Percent Growth (MOLT-4 (Leukemia); Log10 Concentration −5.0): −42% | Mean Optical Densities (MOLT-4 (Leukemia); Log10 Concentration −6.0): 0.614 | Percent Growth (MOLT-4 (Leukemia); Log10 Concentration −6.0): 41% | Mean Optical Densities (MOLT-4 (Leukemia); Log10 Concentration −7.0): 0.951 | Percent Growth (MOLT-4 (Leukemia); Log10 Concentration −7.0): 87% | Mean Optical Densities (MOLT-4 (Leukemia); Log10 Concentration −8.0): 0.964 | Percent Growth (MOLT-4 (Leukemia); Log10 Concentration −8.0): 89% | TGI [2]: 3.14E−06 | Mean Optical Densities ([2]; Log10 Concentration −4.0): 0.347 | Mean Optical Densities ([2]; Log10 Concentration −5.0): 0.127 | Percent Growth ([2]; Log10 Concentration −5.0): −69% | Mean Optical Densities ([2]; Log10 Concentration −6.0): 1.126 | Percent Growth ([2]; Log10 Concentration −6.0): 68% | Mean Optical Densities ([2]; Log10 Concentration −7.0): 1.447 | Percent Growth ([2]; Log10 Concentration −7.0): 98% | Mean Optical Densities ([2]; Log10 Concentration −8.0): 1.502 | Percent Growth ([2]; Log10 Concentration −8.0): 103% | TGI (IGROV1 (Ovarian Cancer)): 3.97E−06 | Mean Optical Densities (IGROV1 (Ovarian Cancer); Log10 Concentration −4.0): 0.302 | Mean Optical Densities (IGROV1 (Ovarian Cancer); Log10 Concentration −5.0): 0.235 | Percent Growth (IGROV1 (Ovarian Cancer); Log10 Concentration −5.0): −49% | Mean Optical Densities (IGROV1 (Ovarian Cancer); Log10 Concentration −6.0): 0.902 | Percent Growth (IGROV1 (Ovarian Cancer); Log10 Concentration −6.0): 74% | Mean Optical Densities (IGROV1 (Ovarian Cancer); Log10 Concentration −7.0): 1.103 | Percent Growth (IGROV1 (Ovarian Cancer); Log10 Concentration −7.0): 107% | Mean Optical Densities (IGROV1 (Ovarian Cancer); Log10 Concentration −8.0): 1.044 | Percent Growth (IGROV1 (Ovarian Cancer); Log10 Concentration −8.0): 97% | TGI (OVCAR-4 (Ovarian Cancer)): 3.41E−06 | Mean Optical Densities (OVCAR-4 (Ovarian Cancer); Log10 Concentration −4.0): 0.172 | Mean Optical Densities (OVCAR-4 (Ovarian Cancer); Log10 Concentration −5.0): 0.093 | Percent Growth (OVCAR-4 (Ovarian Cancer); Log10 Concentration −5.0): −82% | Mean Optical Densities (OVCAR-4 (Ovarian Cancer); Log10 Concentration −6.0): 1.086 | Percent Growth (OVCAR-4 (Ovarian Cancer); Log10 Concentration −6.0): 94% | Mean Optical Densities (OVCAR-4 (Ovarian Cancer); Log10 Concentration −7.0): 1.073 | Percent Growth (OVCAR-4 (Ovarian Cancer); Log10 Concentration −7.0): 92% | Mean Optical Densities (OVCAR-4 (Ovarian Cancer); Log10 Concentration −8.0): 1.114 | Percent Growth (OVCAR-4 (Ovarian Cancer); Log10 Concentration −8.0): 99% | TGI (MALME-3M (Melanoma)): 3.67E−06 | Mean Optical Densities (MALME-3M (Melanoma); Log10 Concentration −4.0): 0.290 | Mean Optical Densities (MALME-3M (Melanoma); Log10 Concentration −5.0): 0.218 | Mean Optical Densities (MALME-3M (Melanoma); Log10 Concentration −6.0): 1.102 | Mean Optical Densities (MALME-3M (Melanoma); Log10 Concentration −7.0): 1.128
